Results published in patent US20180064829A1, “FLUORESCENT BISPHOSPHONATE ANALOGS” (University of Southern California, priority 2015, published 2018).

Columns and labels:
[1] = UV-VIS absorption and fluorescence emission spectra; assay type: physicochemical; conditions: 0.1M phosphate buffer (1x PBS for 7d5); ± 1 nm error
Description: All labeled samples were dissolved in water and diluted with 0.1 M phosphate buffer or 1×PBS (for 7d5). Assuming that the labeled bisphosphonates have the same extinction coefficient (E) as the carboxylic acid of the free fluorescent label, the final concentrations for all labeled products were calculated from UV-VIS absorption spectra at λ=493 nm (ε=73000 M^−1 cm^−1 at pH 7.2) for FAM conjugates (7a1-7a3, 7b1, 7c1, 7d1-7d2, 7e1-7e2, 7f1-7f2), λ=567.5 nm (ε=114850 M^−1cm^−1 at pH 7.5) for RhR-X conjugates (7a4, 7b2, 7c2), λ=580 nm (c=72000 M^−1cm^−1 at pH 8.0) for ROX conjugates (7a5, 7b3), λ=648 nm (ε=240000 M^−1cm^−1 at pH 7.2) for AF647 conjugates (7a6, 7b4, 7d3), λ=774 nm (ε=240000 M^−1cm^−1 at pH 7.4) for 800CW conjugates (7d4), λ=644 nm (ε=271000 M^−1cm^−1 at pH 7.4, 1×PBS) for Sulfo-Cy5 conjugates (7d5).
Emission spectra for FAM and RhR-X conjugates were recorded using an excitation wavelength of 490 nm or 520 nm, respectively. Emission spectra for AF647 conjugates and Sulfo-Cy5 conjugates were recorded using an excitation wavelength of 600 nm. Emission spectra of 5(6)-ROX conjugates were recorded using an excitation wavelength of 575 nm. Emission spectra of IRDye CW800 conjugate was recorded using an excitation wavelength of 750 nm. The set-up of excitation slit, emission slit, integration time and increment were determined to get optimal spectra for each compound respectively, depending on the sample concentration and spectrometer used.

[2] = Hydroxyapatite (HAP) column chromatography binding assay; conditions: pH 6.8, phosphate gradient 1 to 1000 mM; FIG. 3
Description: The fast performance liquid chromatography (FPLC) system consisted of a Waters 650E advanced protein purification system (Millipore Corp., Waters chromatography division, Milford, Mass.), a 600E system controller and a 484 tunable absorbance detector for UV absorbance assessment. Ceramic hydroxyapatite [HAP, […], Macro-Prep® Ceramic Hydroxyapatite Type II 20 μm 100 g, Bio-Rad Laboratories, Inc. Hercules, Calif.] was equilibrated with 1 mM phosphate buffer (pH 6.8) and packed in a 0.66 cm (diameter)×6.5 cm (length) glass column (Omnifit, Bio-chem Valve™ inc., Cambridge, U.K.), which was attached to the Waters 650E advanced protein purification system. Each sample was prepared in 1 mM potassium phosphate buffer, and 100 μL of 1 mM (0.1 μmol) sample was injected into the FPLC system. As a consequence, the compounds were absorbed and subsequently eluted at a flow rate of 2 ml/min by using a linear concentration gradient of phosphate from 1 to 1000 mM at pH 6.8. Fractions of each sample were collected in 80 tubes using an automated fraction collector (Gilson, France) and then used for subsequent ultraviolet (SPECTRAmax PLUS 384, Molecular Devices, CA) or fluorescence spectrometry detection (WALLAC VICTOR™, 1420 MULTILABEL COUNTER, Perkin Elmer, USA). […] The elution profile for each sample was determined in triplicate for statistical analysis (Prism, GraphPad Software, USA). […]

[3] = tested on: unprenylated Rap1A (uRap1A); assay: Prenylation assay: Western blot for unprenylated Rap1A in J774.2 macrophages; assay type: cell-based, mouse; conditions: 10 or 100 μM, 24 h, FIG. 5A-C
Description: To determine the effect of fluorescent BP probes on protein prenylation, J774.2 mouse macrophages were plated out at 2×10^5 cells/mL in 24-well plates and left to adhere overnight. Cells were then treated with 10 or 100 μM of fluorescent analogues of RIS, dRIS, and ZOL, the respective native BP, or vehicle, for 24 h. Cells were lysed in radioimmunoprecipitation buffer, and proteins were separated by sodium dodecyl sulfate polyacrylamide gel electrophoresis and transferred to polyvinyl difluoride membranes by western blotting. Membranes were then incubated with antibodies to the unprenylated form of Rap1A (uRap1A) and the housekeeping protein β-actin, which were detected by incubation with fluorescently-labeled secondary antibodies and scanning of membranes on a LI-COR Infrared Imager. Results shown are representative of 2 independent experiments. The ratio between abundance of unprenylated RaplA and β-actin is indicated for each sample below the blots in FIG. 5.

[4] = pH 7.2, 0.1M phosphate buffer; assumed the same as the corresponding fluorescent dye; cited from earlier work
[5] = pKa and protonation status of the heterocyclic nitrogen; assay type: physicochemical; conditions: pH 6.0; calculated by Henderson-Hasselbalch equation
Description: The nucleophilicity and Lewis basicity of the nitrogen atom of the three heterocyclic N-BPs studied in this report vary, and these properties appear to be the major determinants of their conjugation reactivity. Thus, the ‘magic linker’ methodology for RIS required modification for ZOL (1d), MIN (1e), and their related analogues (1f). […] The protonation status of the heteroatom at different pH is also critical to the reactivity. […] Under such conditions, more than 50% (˜71.3% calculated) of the nitrogen of RIS will be deprotonated, and able to attack the epoxide ring nucleophilically. However, at pH 6.0, only 18% of the nitrogen of ZOL (22% for MIN) is deprotonated, thus the reactions were very slow (2d) at pH 6.0. At pH 7.0-7.5, reaction was more rapid, but the regioselectivity (N-alkylation vs. O-alkylation) for 1d, 1e, 1f was not as good as for RIS and its analogues (1a, 1b, 1c); 10-20% of side products could be observed, which were confirmed by HPLC, NMR and MS to be the products of N,O(P)-dialkylation (O-alkylation occurs between the phosphonate/carboxylate group of the drug and the epoxide). The reaction rate of MinPC (1f)-epoxide (5) coupling was even slower than ZOL under the same reaction conditions (same reactant ratio, pH 7.5, 40-45° C.), which might be due to a steric effect from the large heterocycle. In addition, the percent of side products was higher and O-alkylation products were also observed in the reaction mixture.
The following publications are incorporated by reference herein in their entirety: • [1] a) R. G. G. Russell, N. B. Watts, F. H. Ebetino, M. J. Rogers, Osteoporos. Int. 2008, 19, 733-759; b) F. Ebetino, A. Hogan, S. Sun, M. Tsoumpra, X. Duan, J. Triffitt, A. Kwaasi, J. Dunford, B. Barnett, U. Oppermann, M. Lundy, A. Boyde, B. Kashemirov, C. McKenna, R. Russell, Bone 2011, 49 20-33. • [2] a) I. Reid, M. Bolland, A. Grey, Bone 2007, 41, 318-320; b) A. Siddiqi, A. Payne, S. Zafar, Oral Surg. Oral Med. Oral Pathol. Oral Radiol. Endod. […]

[6] = tested on: unprenylated Rap1A (uRap1A); conditions: PC analogues versus N-BPs; cited from earlier work
[7] = parent compounds, ref. [23]; cited from earlier work

Compound: O=C(NCC(O)C[n+]1ccn(CC(O)(P(=O)(O)O)P(=O)(O)O)c1)c1ccc(C(=O)O)c(-c2c3ccc(=O)cc-3oc3cc(O)ccc23)c1 (centres unmarked) [Compound 6-FAM-ZOL, 3-(3-(4-carboxy-3-(6-hydroxy-3-oxo-3H-xanthen-9-yl)benzamido)-2-hydroxypropyl)-1-(2-hydroxy-2,2-diphosphonoethyl)-1H-imidazol-3-ium]
- Maximum absorption wavelength (λmax (abs), nm) [1]: 493 nm
- Maximum emission wavelength (λmax (em), nm) [1]: 516 nm
- HAP binding affinity (retention time on HAP column, normalized to RIS) [2]: slightly longer retention time on the HAP column than its 5-isomer
- accumulation of unprenylated Rap1A (anti-prenylation activity) [3]: retain some activity, although their potencies are weaker than native ZOL
- Extinction coefficient [4]: 73,000 (pH 7.2) M^−1cm^−1

Compound: O=P(O)(O)C(O)(Cc1cnc2ccccn12)P(=O)(O)O [MIN, (1-Hydroxy-2-imidazo[1,2-a]pyridin-3-yl-1-phosphonoethyl)phosphonic acid]
- fraction of the heterocyclic nitrogen deprotonated [5]: 22%

Compound: O=C(O)C(O)(Cc1cnc2ccccn12)P(=O)(O)O (centres unmarked) [MINPC, 2-hydroxy-3-imidazo[1,2-a]pyridin-3-yl-2-phosphonopropionic acid]
- activity in uRap1A and J774.2 cell viability screening assays [6]: much less active than the N-BPs

Compound: O=C(O)C(O)(Cc1cccnc1)P(=O)(O)O (centres unmarked) [RISPC, 2-hydroxy-2-phosphono-3-pyridin-3-ylpropanoic acid]
- rank order of mineral binding affinity [7]: RIS>dRIS>RISPC
- activity in uRap1A and J774.2 cell viability screening assays [6]: much less active than the N-BPs

Compound: O=P(O)(O)C(O)(Cn1ccnc1)P(=O)(O)O [ZOL, [1-hydroxy-2-(1H-imidazol-1-yl)ethane-1,1-diyl]bis(phosphonic acid)]
- fraction of the heterocyclic nitrogen deprotonated [5]: 18%

Compound: O=P(O)(O)C(Cc1cccnc1)P(=O)(O)O [dRIS, (2-pyridin-3-ylethane-1,1-diyl)bis(phosphonic acid)]
- rank order of mineral binding affinity [7]: RIS>dRIS>RISPC
